Type in all cases: cell-based, human
One test has as its system MDA-MB-468. As to the kind of experiment: MTT cancer cell proliferation assay, MDA-MB-468. The note with it: Homo sapiens, MDA-MB-468, 48 h, Table 3; pyran-fused diterpenoids; MTT 48 h; mean ± SE of three experiments. As for the experimental part:
(§1) In Vitro Determination of Effects of Synthesized Diterpenoids on Cancer Cell Proliferation. Breast cancer cell lines MCF-7, MDA-MB-231, […] and MCF/ADR were seeded in 96-well plates at a density of 1×10^4 cells/well and treated with DMSO and 0.01, 0.1, 1, 5, 10, and 100 μM of individual compound for 48 h, and then 20 μL of 3-(4,5-dimethylthiazol-2-yl)-2,5-diphenyltetrazolium bromide (MTT) (5 mg/mL in PBS) was added to each well and further incubated for another 4 h. Then MTT solution was removed, and 150 μL of DMSO was added to each well. Absorbance of all wells was determined by measuring OD at 550 nm after a 10 min incubation on a 96-well GlowMaxate absorbance reader (Promega, Madison, Wis.). Each individual compound was tested in quadruplicate wells for each concentration.
(§2) The growth inhibitory effects of the newly generated pyran-fused diterpenoids were evaluated in four breast cancer cell lines MCF-7 (ER-positive), MDAMB-231 (ER-negative and triple-negative), MDA-MB-468 (ER-negative and triple-negative) as well as MCF-7/ADR (adriamycin-resistant) using MTT assays as described in the Experimental Section. The capability of these new molecules to inhibit the growth of cancer cells was summarized in Table 3 and compared with that of adriamycin and 1 spontaneously.

Another test deals with MDA-MB-231. As to the kind of experiment: MTT cancer cell proliferation assay, MDA-MB-231. The note with it: Homo sapiens, MDA-MB-231, 48 h, Table 3; pyran-fused diterpenoids; MTT 48 h; mean ± SE of three experiments; read-out: IC50 (μM) MDA-MB-231. As for the experimental part:
as §1
(§3) The growth inhibitory effects of the newly generated pyran-fused diterpenoids were evaluated in four breast cancer cell lines MCF-7 (ER-positive), MDAMB-231 (ER-negative and triple-negative), MDA-MB-468 (ER-negative and triple-negative) as well as MCF-7/ADR (adriamycin-resistant) using MTT assays as described in the Experimental Section.

Another test relates to MCF-7. Briefly: MTT cancer cell proliferation assay, MCF-7. The note with it: Homo sapiens, MCF7, 48 h, Table 3; pyran-fused diterpenoids; MTT 48 h; mean ± SE of three experiments; read-out: IC50 (μM) MCF-7. As for the experimental part: as §1, §3
The subject of the next test is MCF-7/ADR. Briefly: MTT growth inhibition, drug-resistant MCF-7/ADR. The settings on record: Homo sapiens, NCI/ADR-RES, 48 h, Table 3; adriamycin-resistant; MTT 48 h; mean ± SE of three experiments. On the procedure:
as §1, §2

In patent publication US9725460B2, “Oridonin analogs, compositions, and methods related thereto” (THE BOARD OF REGENTS OF THE UNIVERSITY OF TEXAS SYSTEM, priority 2013, dated 2017) one finds IC50 data, which are given here for eight compounds.

`C=C1C(=O)[C@]23[C@H](O)[C@H]1CC[C@H]2[C@@]12CO[C@@]3(O)[C@@H](O)[C@@H]1C(C)(C)CC1=C2O[C@@H](OCC)CC1` [CYD-8-50]: the IC50 (commonly the concentration that inhibits the measured activity by half) was 2.24 ± 0.68 µM in the test on MDA-MB-468, 3.32 ± 1.01 µM with MDA-MB-231, 1.9 ± 0.97 µM in the test on MCF-7 and 3.18 ± 0.89 µM in the test on MCF-7/ADR.

Take `C=C1C(=O)[C@@]23[C@@H]4OC(C)(C)O[C@@]25OC[C@]2(C6=C(CC[C@H](OCC(C)C)O6)CC(C)(C)[C@H]2[C@@H]5O)[C@@H]3CC[C@@H]14` [CYD-8-52-1]: the IC50 with MDA-MB-468 turned out to be 2.62 ± 0.08 µM; in the test on MDA-MB-231, 1.76 ± 0.22 µM; in the test with MCF-7 it was 2.24 ± 1.33 µM; with MCF-7/ADR it was 4.42 ± 0.9 µM.

On to `C=C1C(=O)[C@@]23[C@@H]4OC(C)(C)O[C@@]25OC[C@]2(C6=C(CC[C@@H](OCC(C)C)O6)CC(C)(C)[C@H]2[C@@H]5O)[C@@H]3CC[C@@H]14` [CYD-8-52-2], for which the IC50 with MDA-MB-468 was 6.95 ± 1.01 µM; in the test with MDA-MB-231, 8.18 ± 0.57 µM; in the test on MCF-7, 5.83 ± 3.75 µM; in the test on MCF-7/ADR, 10.3 ± 1.65 µM.

For `C=C1C(=O)[C@@]23[C@@H]4OC(C)(C)O[C@@]25OC[C@]2(C6=C(CC[C@H](OCCCl)O6)CC(C)(C)[C@H]2[C@@H]5O)[C@@H]3CC[C@@H]14` [CYD-8-65-1], the IC50 in the test with MDA-MB-468 is 2.99 ± 1.01 µM; in the test with MDA-MB-231 it was 3.3 ± 1.81 µM; with MCF-7, 2.31 ± 1.02 µM; in the test on MCF-7/ADR it was 3.08 ± 1.12 µM.

For the compound `C=C1C(=O)[C@@]23[C@@H]4OC(C)(C)O[C@@]25OC[C@]2(C6=C(CC[C@@H](OCCCl)O6)CC(C)(C)[C@H]2[C@@H]5O)[C@@H]3CC[C@@H]14` [CYD-8-65-2], the IC50 in the test with MDA-MB-468 amounted to 7.26 ± 0.23 µM; with MDA-MB-231 it was 7.15 ± 1.27 µM; with MCF-7, 6.76 ± 3.43 µM; in the test on MCF-7/ADR, 8.74 ± 0.27 µM.

As to `C=CCO[C@H]1CCC2=C(O1)[C@@]13CO[C@@]4(OC(C)(C)O[C@@H]5[C@H]6CC[C@@H]1[C@]54C(=O)C6=C)[C@@H](O)[C@@H]3C(C)(C)C2` [CYD-8-66-1], the IC50 amounted to 4.89 ± 0.85 µM with MDA-MB-468, 7.12 ± 0.22 µM with MDA-MB-231, 4.32 ± 1.82 µM with MCF-7 and 4.31 ± 2.43 µM in the test with MCF-7/ADR.

On to `C=CCO[C@@H]1CCC2=C(O1)[C@@]13CO[C@@]4(OC(C)(C)O[C@@H]5[C@H]6CC[C@@H]1[C@]54C(=O)C6=C)[C@@H](O)[C@@H]3C(C)(C)C2` [CYD-8-66-2], for which the half-inhibitory concentration (IC50) in the test with MDA-MB-468 was 4.37 ± 1.48 µM; in the test with MDA-MB-231 it was 3.3 ± 0.23 µM; in the test with MCF-7, 2.1 ± 0.98 µM; with MCF-7/ADR it was 3.19 ± 0.54 µM.

For `C=C1C(=O)[C@@]23[C@@H]4OC(C)(C)O[C@@]25OC[C@]2(C6=C(CC[C@H](OCCCCO)O6)CC(C)(C)[C@H]2[C@@H]5O)[C@@H]3CC[C@@H]14` [CYD-8-67-1], the IC50 is 2.65 ± 0.14 µM in the test on MDA-MB-468, 3.18 ± 0.24 µM in the test with MDA-MB-231, 2.14 ± 1.11 µM in the test on MCF-7 and 4.51 ± 1.54 µM in the test with MCF-7/ADR.
